From publication PMC8825254, “Rational design of Striga hermonthica-specific seed germination inhibitors” (Plant Physiology, 2021)

How the values were obtained:
[1] = system: Striga hermonthica; experiment: Striga emergence study in infested rice pots under greenhouse conditions; assay type: in vivo, Striga hermonthica on rice cv IAC165; conditions: for Striga emergence, average number: twice per week for 4 weeks, 10 weeks after rice planting, mock 26 per pot; for Change in Striga emergence compared to mock: Figure 10B; for Rice plant height, change: Striga-infested pots, Figure 10C
Method: Approximately 6,000 Striga seeds (20 mg) were weighed, mixed with sand/soil mixture (1:2 ratio), and put into a 3-L perforated plastic pot containing 0.5-L clean sand/soil mixture in the bottom. The pots were kept under greenhouse-controlled conditions at 30°C and kept moist with water for Striga preconditioning for 10 d. Formulated KK023-N1 and Triton X-100 were applied (at 100 mL per pot) at 10 and 100 µM concentration. Then three rice seedlings (cv IAC165, 10 d old) were planted in each pot after 24 h of inhibitor application. All the treatments were applied continuously twice per week for 4 weeks. Water with same amount of solvent (Cyclohexanone+Atlas-G) was used as a control. Pots were irrigated with 200 mL of Hoagland’s nutrient solution with low phosphate (4 µM) when needed. The rice plants were allowed to grow under greenhouse conditions for 10 weeks and the emerged Striga plants were counted from each pot. The height of rice plants was also measured to see impact of Striga infestation on host growth.

[2] = system: Rice d17 seedlings; experiment: Rice micro tillering assay, SL-deficient mutant d17 with GR24; assay type: in vivo, rice (Oryza sativa); conditions: compound with 1.0 µM GR24; result in words
Method: (§1) Rice seeds of WT (cv Nipponbare) or SL-deficient mutant (d17), were surface sterilized with 2.5% NaClO and 0.05% of Tween-20 for 10 min, and rinsed 6 times with sterilized MilliQ water. About 30 seeds were placed on sterilized Magenta GA-7 plant culture box containing 0.5% MS medium with 0.4% agar and incubated at 30°C in dark. After 2 d, boxes were moved to a growth chamber and allowed to grow for another 5 d under fluorescent white light (130–180 μM m^−2 s^−1). Equally grown seedlings were transplanted in 50-mL black tubes filled with Hoagland nutrient solution (1 seedling/tube). Seedlings were treated with 10, 50, and 100 µM of each compound (KK023-N1, Triton X-100, and KK094). The compounds were applied twice a week for 2 weeks to test their effects on the growth of WT plants. SL-deficient seedlings (d17) were treated as WT but with the addition of 1 µM GR24. Number of tillers per plant, plant height, and dry biomass were measured at final harvest.

[3] = target: ShHTL5 (Striga hermonthica, UniProt A0A0M5I297); experiment: YLG hydrolysis competition assay with ShHTL5; assay type: biochemical
[4] = system: ShHTL7–ShMAX2-CTH interaction; experiment: GST pull-down of His-ShHTL7 by CTH of ShMAX2; assay type: binding, Striga hermonthica; conditions: 100 µM compound, 100 µM GR24; result in words
Method: Purified GST-CTH of ShMAX2 and GST were bound to the Glutathione Sepharose 4B Beads (GE healthcare). Purified 6× His-ShHTL7 was incubated with 100 μM KK023-N1 and Triton X-100 for 3 h, separately. Then apo ShHTL7 was added to the beads bound by GST-CTH of ShMAX2 in the presence and absence of 100 μM GR24. Similarly, ShHTL7 incubated with KK023-N1 and Triton X-100 were added to the beads bound by GST-CTH of ShMAX2 in the presence of 100 μM GR24. Apo ShHTL7 was added to the beads bound by GST only in the presence of 100 μM GR24 as a control. All the samples were washed with lysis buffer (50-mM Tris–HCl pH 8.0, 200 mM NaCl, 2 mM DTT) three times and then eluted with addition of 20 mM reduced glutathione. Thus, the eluted protein was subjected to Western blot using an antibody specific to 6XHis (Abcam, Cambridge, UK).

[5] = system: Rice WT (cv Nipponbare) seedlings; experiment: Rice micro tillering assay, WT, hydroponics; assay type: in vivo, rice (Oryza sativa); conditions: 10, 50 and 100 µM, 2 weeks, result in words
Method: as §1

[6] = target: T1, ShHTL7 (Striga hermonthica, UniProt A0A0M3PNA2); experiment: YLG hydrolysis competition assay with ShHTL7; assay type: biochemical
T1 sequence (A0A0M3PNA2 1-271): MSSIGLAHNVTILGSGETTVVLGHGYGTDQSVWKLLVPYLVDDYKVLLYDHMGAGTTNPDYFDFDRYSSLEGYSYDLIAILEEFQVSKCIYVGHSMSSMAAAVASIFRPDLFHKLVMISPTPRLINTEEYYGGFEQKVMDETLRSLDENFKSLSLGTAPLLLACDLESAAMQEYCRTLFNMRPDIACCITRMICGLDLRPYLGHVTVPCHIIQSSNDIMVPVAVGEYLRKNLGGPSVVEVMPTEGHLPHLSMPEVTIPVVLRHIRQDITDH
Method: About 0.33 µM of ShHTL7 protein was used to conduct in vitro hydrolysis of YLG (1 µM) as a substrate in a total volume of 100 µL of phosphate-buffered saline (1× PBS) containing 0.1% DMSO in 96-well black plate (Greiner Kremsmünster, Austria; [Tsuchiya et al., 2015]). The hydrolysis of YLG over time and changes in the fluorescence intensity was measured by SpectraMax i3 (Molecular Devices, San Jose, CA, USA) using an excitation wavelength of 480 nm and detection wavelength of 520 nm and recorded at 10 min intervals for 2 h. YLG in 1× PBS without protein was used as a control. […] Measurement of the fluorescence was conducted in SpectraMax i3 (Molecular Devices) using the above-mentioned method. The relative fluorescence unit was calculated by subtracting the auto-fluorescence of YLG in the buffer from the fluorescence values of YLG in the presence of a protein. The inhibitory curve and IC50 were determined using https://www.aatbio.com/tools/ic50-calculator website.

[7] = system: Rice seeds (cv Nipponbare); experiment: Rice germination and seedling growth in response to inhibitors; assay type: in vivo, rice (Oryza sativa); conditions: result in words
Method: Rice seeds (cv Nipponbare) were surface sterilized in 2.5% NaClO and 0.05% of Tween-20 for 10 min, and rinsed 6 times with sterilized MilliQ water. Seeds were imbibed in sterilized water at 30°C for 24 h in the dark. Next day, ∼3 mL of each inhibitor at different concentrations (3, 6, 12, 25, 50, and 100 μM) was added along with 0.5 Murashige and Skoog (MS) medium into 24-well plate, and one imbibed rice seed was placed in each well. The experiment was performed in six replications (one plant/well, n = 6) for each concentration. Nontreated rice seeds in 0.5-MS solution were included as a control. Seeds were allowed to germinate at 30°C in the dark for 48 h for monitoring seeds germination, and seeds were moved to a growth chamber with white fluorescent light (130–180 μM m^−2 s^−1) and12 h:12 h (Light/Dark (L/D)) period at 28°C. After 1 week, length of rice seedlings was measured and recorded, and pictures of seedlings were taken.

ShHTL5, sequence (A0A0M5I297 entry or part of it): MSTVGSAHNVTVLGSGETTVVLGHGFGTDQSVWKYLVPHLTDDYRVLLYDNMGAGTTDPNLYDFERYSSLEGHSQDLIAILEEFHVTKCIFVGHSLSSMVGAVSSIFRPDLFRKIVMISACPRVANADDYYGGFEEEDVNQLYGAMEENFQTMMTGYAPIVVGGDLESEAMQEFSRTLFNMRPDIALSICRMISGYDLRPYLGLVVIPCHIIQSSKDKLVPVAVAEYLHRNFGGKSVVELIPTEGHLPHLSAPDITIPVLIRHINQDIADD

SMILES: COc1ccc(CCCc2cccc3c2CCN3C(=O)n2ccnn2)cc1 [KK023-N1]
- Striga emergence, average number ([1]; 10 µM): 20 Striga plants per pot
- Change in Striga emergence compared to mock ([1]; 10 µM): -24%
- Rice plant height, change ([1]; 10 µM): +17%
- Striga emergence, average number ([1]; 100 µM): 16 Striga plants per pot
- Change in Striga emergence compared to mock ([1]; 100 µM): 38%
- Rice plant height, change ([1]; 100 µM): +26%
- Effect on GR24 action on tillering of d17 rice [2]: did not block the GR24 effect on rice tillers
- inhibition at 50 µM ([3]; 1 h, 50 µM compound, read-out: Reduction of ShHTL5 hydrolysis activity): 20%
- IC50 ([3]; read-out: IC50, ShHTL5-mediated YLG hydrolysis): > 50000 nM
- Effect on YLG hydrolysis by ShHTL5 ([3]; result in words): did not influence the YLG hydrolysis
- Effect on GR24-dependent pull-down of His-ShHTL7 by GST-CTH of ShMAX2 [4]: could inhibit such interaction
- Effect on dry biomass of WT rice [5]: except at 100 µM concentration that led to a reduction in biomass
- Effect on plant height of WT rice [5]: did not observe any significant negative impact
- Effect on tillering of WT rice [5]: did not observe any significant negative impact
- IC50 [6]: 1780 nM
- Effect on rice seedling plant height ([7]; all treatments (3-100 µM), 1 week): no effect on plant height was observed
- Effect on rice seed germination ([7]; up to 100 µM): did not detect any effect on seed germination
- Phenotype of treated rice seedlings versus control ([7]; up to 100 µM): did not show any significant phenotypic difference
